According to patent US9522962B2, “Peptides, conjugates and method for increasing immunogenicity of a vaccine” (Academisch Ziekenhuis Leiden h.o.d.n. LUMC, priority 2010, dated 2016):
Entries after “also recorded” stand apart in the source; their conditions may differ. Like-named read-outs stand apart in the source and are kept apart here. Square brackets hold non-standard residues; d marks the D form. Ends that are not written are not given here. * marks the point of attachment. Biotin = O=C1N[C@H]2[C@H](CS[C@H]2CCCCC(=O)*)N1; code O = not defined here; Ahx = NCCCCCC(=O)O

Test system: antibodies in TETAQUIN® (anti-TTd antibodies)
Format: binding, human
Conditions: for binding to TETAQUIN (screen of overlapping 22-mer TTx peptides): FIG. 3 (α-chain), FIG. 4 (β-chain)
[1] = Table 2, length variants of peptide β-32, section 'With linker', […] diluted 800x, OD at 415 nm
[2] = Table 2, length variants of peptide β-32, section 'Without linker' (sequence listed without Z O), […]
[3] = Table 3, further length variants and Lys(formyl) variants, […], neg. control OD 0.30

Substance	OD [1]	OD [2]	other results
F I G I T E L K K L Z O (FIGITELKKL-{Ahx-code O}; reading uncertain) [P24]	0.35	0.35	–
I K A N S K F I G I T E Z O (IKANSKFIGITE-{Ahx-code O}; reading uncertain) [P20]	0.2	0.2	–
J Z Z SKFIGITELKKLESKINKVF (SKFIGITELKKLESKINKVF) [J = Biotin (N-terminal), Z = Ahx]	–	–	ELISA OD, effect of longer spacer and C- versus N-terminal biotinylation (Table 4, antibody source not given): 0.47
F I G I T E L K K L E S K I N K Z O (FIGITELKKLESKINK[Ahx]K(Biotin)) [0925-56]	–	–	OD [3]: 1.55
I K A N S K F I G I Z O (IKANSKFIGI-{Ahx-code O}; reading uncertain) [P27]	0.2	0.2	–
L K K L E S K I Z O (LKKLESKI-{Ahx-code O}; reading uncertain) [P29]	0.2	0.2	–
S K F I G I T E L K K L E S K I Z O (SKFIGITELKKLESKI-{Ahx-code O}; reading uncertain) [P7]	1.15	1.15	–
G I T E L K K L E S Z O (GITELKKLES-{Ahx-code O}; reading uncertain) [P23]	0.25	0.25	–
Q Y I K A N S K F I Z O (QYIKANSKFI-{Ahx-code O}; reading uncertain) [P28]	0.2	0.2	–
I K A N S K F I G I T E L K K L E S Z O (IKANSKFIGITELKKLES-{Ahx-code O}; reading uncertain) [P5]	0.9	0.9	–
A N S K F I G I T E L K K L Z O (ANSKFIGITELKKL-{Ahx-code O}; reading uncertain) [P13]	0.6	0.6	–
I K A N S K F I Z O (IKANSKFI-{Ahx-code O}; reading uncertain) [P35]	0.2	0.2	–
A N S K F I G I T E L K K L E S Z O (ANSKFIGITELKKLES-{Ahx-code O}; reading uncertain) [P8]	0.85	0.85	–
F I G I T E L J K L E S K I Z O [0925-64, J = Lys(formyl)]	–	–	OD [3]: 1.70
A N S K F I G I T E L K K L E S K I Z O (ANSKFIGITELKKLESKI-{Ahx-code O}; reading uncertain) [P4]	1.05	1.05	–
S K F I G I T E L K K L E S Z O (SKFIGITELKKLES-{Ahx-code O}; reading uncertain) [P12]	0.8	0.8	–
KFNAYLANKWVFITITNDRLSSZO [β48]	–	–	binding to TETAQUIN (screen of overlapping 22-mer TTx peptides): good binding; also recorded: antibodies present
ELGKKFNIKTRLSYFSMNHDPVZO [α31]	–	–	binding to TETAQUIN (screen of overlapping 22-mer TTx peptides): good binding; also recorded: antibodies present
L K K L E S K I N K V F S T Z O (LKKLESKINKVFST[Ahx]K(Biotin)) [0925-63]	–	–	OD [3]: 0.40
T E L K K L E S K I Z O (TELKKLESKI-{Ahx-code O}; reading uncertain) [P22]	0.2	0.2	–
